Assay: molar heat capacity at constant pressure; xn = mol fraction of the nth substance listed
Settings: 101.3 kPa, Liquid, Small sample (50 mg) DSC

CCC(C)(C)O [2-methylbutan-2-ol] + CCCCCCC
Settings | molar heat capacity at constant pressure [J/K/mol]
318.15 K, x1 = 0.4051 | 268.55
318.15 K, x1 = 0.4986 | 270.68
318.15 K, x1 = 0.5981 | 271.65
318.15 K, x1 = 0.7015 | 272.08
318.15 K, x1 = 0.8023 | 271.36
318.15 K, x1 = 0.9139 | 270.14
318.15 K, x1 = 0.9609 | 269.17
319.15 K, x1 = 0.0061 | 232.58
319.15 K, x1 = 0.0494 | 240.63
319.15 K, x1 = 0.1 | 249.49
319.15 K, x1 = 0.1547 | 255.72
319.15 K, x1 = 0.1999 | 259.62
319.15 K, x1 = 0.2993 | 265.58
319.15 K, x1 = 0.4051 | 269.3
319.15 K, x1 = 0.4986 | 271.51
319.15 K, x1 = 0.5981 | 272.56
319.15 K, x1 = 0.7015 | 273.04
319.15 K, x1 = 0.8023 | 272.38
319.15 K, x1 = 0.9609 | 270.15
319.16 K, x1 = 0.0249 | 235.12
319.16 K, x1 = 0.9139 | 271.16
320.14 K, x1 = 0.0061 | 232.92
320.14 K, x1 = 0.0249 | 235.28
320.14 K, x1 = 0.0494 | 240.72
320.14 K, x1 = 0.1 | 249.68
320.14 K, x1 = 0.1547 | 255.93
320.14 K, x1 = 0.1999 | 260.03
320.14 K, x1 = 0.2993 | 266.13
320.14 K, x1 = 0.4051 | 269.96
320.14 K, x1 = 0.4986 | 272.22
320.14 K, x1 = 0.5981 | 273.33
320.14 K, x1 = 0.7015 | 273.87
320.14 K, x1 = 0.8023 | 273.27
320.14 K, x1 = 0.9139 | 272.09
320.14 K, x1 = 0.9609 | 270.99
321.15 K, x1 = 0.0061 | 233.36
321.15 K, x1 = 0.0249 | 235.64
321.15 K, x1 = 0.0494 | 240.94
321.15 K, x1 = 0.1 | 249.94
321.15 K, x1 = 0.1547 | 256.42
321.15 K, x1 = 0.1999 | 260.55
321.15 K, x1 = 0.2993 | 266.78
321.15 K, x1 = 0.4051 | 270.74
321.15 K, x1 = 0.4986 | 273.12
321.15 K, x1 = 0.5981 | 274.26
321.15 K, x1 = 0.7015 | 274.94
321.15 K, x1 = 0.8023 | 274.3
321.15 K, x1 = 0.9139 | 273.21
321.15 K, x1 = 0.9609 | 272.08
322.15 K, x1 = 0.0061 | 233.83
322.15 K, x1 = 0.0249 | 235.95
322.15 K, x1 = 0.0494 | 241.13
322.15 K, x1 = 0.1 | 250.19
322.15 K, x1 = 0.1547 | 256.8
322.15 K, x1 = 0.1999 | 261.03
322.15 K, x1 = 0.2993 | 267.36
322.15 K, x1 = 0.4051 | 271.46
322.15 K, x1 = 0.4986 | 273.9
322.15 K, x1 = 0.5981 | 275.18
322.15 K, x1 = 0.7015 | 275.82
322.15 K, x1 = 0.8023 | 275.19
322.15 K, x1 = 0.9139 | 274.13
322.15 K, x1 = 0.9609 | 272.97
323.14 K, x1 = 0.0061 | 234.21
323.14 K, x1 = 0.0249 | 236.15
323.14 K, x1 = 0.0494 | 241.26
323.14 K, x1 = 0.1 | 250.37
323.14 K, x1 = 0.1547 | 257.15
323.14 K, x1 = 0.1999 | 261.38
323.14 K, x1 = 0.2993 | 267.94
323.14 K, x1 = 0.4051 | 272.09
323.14 K, x1 = 0.4986 | 274.67
323.14 K, x1 = 0.5981 | 275.95
323.14 K, x1 = 0.7015 | 276.7
323.14 K, x1 = 0.8023 | 276.15
323.14 K, x1 = 0.9139 | 275.08
323.14 K, x1 = 0.9609 | 273.92
324.15 K, x1 = 0.0061 | 234.52
324.15 K, x1 = 0.0249 | 236.43
324.15 K, x1 = 0.0494 | 241.45
324.15 K, x1 = 0.1 | 250.6
324.15 K, x1 = 0.1547 | 257.46
324.15 K, x1 = 0.1999 | 261.78
324.15 K, x1 = 0.2993 | 268.5
324.15 K, x1 = 0.4051 | 272.8
324.15 K, x1 = 0.4986 | 275.41
324.15 K, x1 = 0.5981 | 276.79
324.15 K, x1 = 0.7015 | 277.57
324.15 K, x1 = 0.8023 | 277.05
324.15 K, x1 = 0.9139 | 275.96
324.15 K, x1 = 0.9609 | 274.86
325.15 K, x1 = 0.0061 | 234.92
325.15 K, x1 = 0.0249 | 236.8
325.15 K, x1 = 0.0494 | 241.6
325.15 K, x1 = 0.1 | 250.76
325.15 K, x1 = 0.1547 | 257.7
325.15 K, x1 = 0.1999 | 262.12
325.15 K, x1 = 0.2993 | 269.04
325.15 K, x1 = 0.4051 | 273.4
325.15 K, x1 = 0.4986 | 276.1
325.15 K, x1 = 0.5981 | 277.56
325.15 K, x1 = 0.7015 | 278.38
325.15 K, x1 = 0.8023 | 277.92
325.15 K, x1 = 0.9139 | 276.88
325.15 K, x1 = 0.9609 | 275.71
326.14 K, x1 = 0.0061 | 235.39
326.14 K, x1 = 0.0249 | 237.1
326.14 K, x1 = 0.0494 | 241.8
326.14 K, x1 = 0.1 | 250.96
326.14 K, x1 = 0.1547 | 258.02
326.14 K, x1 = 0.1999 | 262.54
326.14 K, x1 = 0.2993 | 269.54
326.14 K, x1 = 0.4051 | 274.06
326.14 K, x1 = 0.4986 | 276.85
326.14 K, x1 = 0.5981 | 278.41
326.14 K, x1 = 0.7015 | 279.29
326.14 K, x1 = 0.8023 | 278.83
326.14 K, x1 = 0.9139 | 277.8
326.14 K, x1 = 0.9609 | 276.69
327.14 K, x1 = 0.1999 | 262.84
327.15 K, x1 = 0.0061 | 235.69
327.15 K, x1 = 0.0249 | 237.39
327.15 K, x1 = 0.0494 | 241.94
327.15 K, x1 = 0.1 | 251.07
